# Test results taken from patent US20090136482A1, “DRUG TARGET PROTEIN AND TARGET GENE, AND SCREENING METHOD” (REVERSE PROTEOMICS RESEARCH INSTITUTE CO., LTD., priority 2005, published 2009).
# Columns and labels:
# FLJ10368-derived protein = molecular target: T1, FLJ10368-derived protein (Homo sapiens, UniProt Q9NUX5); experiment: Biacore S51 surface plasmon resonance interaction analysis with FLJ10368-derived protein; type: binding
# T1 construct: fused on or other part: N-terminal histidine tag and FLAG tag, with Gateway linker residues
# T1 sequence (Q9NUX5 1-634): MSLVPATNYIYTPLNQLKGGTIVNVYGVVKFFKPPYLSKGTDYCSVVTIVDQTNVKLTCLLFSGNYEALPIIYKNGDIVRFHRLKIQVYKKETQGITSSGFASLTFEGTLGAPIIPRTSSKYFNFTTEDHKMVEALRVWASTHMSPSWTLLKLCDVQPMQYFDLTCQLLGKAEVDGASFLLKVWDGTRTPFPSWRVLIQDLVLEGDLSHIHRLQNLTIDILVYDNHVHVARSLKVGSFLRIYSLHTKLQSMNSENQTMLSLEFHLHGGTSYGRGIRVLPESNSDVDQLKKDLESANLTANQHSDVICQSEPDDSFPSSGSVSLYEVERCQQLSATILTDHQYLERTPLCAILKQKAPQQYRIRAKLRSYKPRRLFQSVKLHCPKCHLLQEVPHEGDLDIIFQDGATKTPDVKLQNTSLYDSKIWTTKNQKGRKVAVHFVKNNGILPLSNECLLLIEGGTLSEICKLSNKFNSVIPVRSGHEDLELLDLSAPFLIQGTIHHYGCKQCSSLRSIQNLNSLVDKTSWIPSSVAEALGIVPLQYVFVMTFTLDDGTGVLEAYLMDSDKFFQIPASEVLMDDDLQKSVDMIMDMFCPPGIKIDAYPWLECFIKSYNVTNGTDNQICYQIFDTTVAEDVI
# Procedure: (§1) The obtained plasmids were subjected to phenol/chloroform treatment and the inactivation treatment of RNase according to the PROTEIOS (TOYOBO) protocol to give purified expression plasmids.
# (§2) The surface of a CM5 sensor chip for S51 (commercially available from Biacore) was converted to NTA using 1 M EDC, 1.33 M NHS, and 16 mg/ml AB-NTA (pH 9.2) to give an NTA sensor chip for S51. […] The immobilization was performed by sequentially injecting 0.5 M NiCl2, 0.4 M EDC, […], a ligand (protein) solution, and 1 M ethanolamine (pH 8.5) into the passage system of Biacore S51. […] For the correction (solvent correction) of the effect of DMSO contained in the compound solutions and the running buffer, the same solutions as the running buffer containing 3.8 to 5.1% DMSO (8 points) were prepared to perform correction based on the measurement results of these solutions.
# FLJ12389-derived protein = molecular target: T2, FLJ12389-derived protein (Homo sapiens, UniProt Q86V21); experiment: Biacore S51 surface plasmon resonance interaction analysis with FLJ12389-derived protein; type: binding
# T2 sequence (Q86V21 1-672): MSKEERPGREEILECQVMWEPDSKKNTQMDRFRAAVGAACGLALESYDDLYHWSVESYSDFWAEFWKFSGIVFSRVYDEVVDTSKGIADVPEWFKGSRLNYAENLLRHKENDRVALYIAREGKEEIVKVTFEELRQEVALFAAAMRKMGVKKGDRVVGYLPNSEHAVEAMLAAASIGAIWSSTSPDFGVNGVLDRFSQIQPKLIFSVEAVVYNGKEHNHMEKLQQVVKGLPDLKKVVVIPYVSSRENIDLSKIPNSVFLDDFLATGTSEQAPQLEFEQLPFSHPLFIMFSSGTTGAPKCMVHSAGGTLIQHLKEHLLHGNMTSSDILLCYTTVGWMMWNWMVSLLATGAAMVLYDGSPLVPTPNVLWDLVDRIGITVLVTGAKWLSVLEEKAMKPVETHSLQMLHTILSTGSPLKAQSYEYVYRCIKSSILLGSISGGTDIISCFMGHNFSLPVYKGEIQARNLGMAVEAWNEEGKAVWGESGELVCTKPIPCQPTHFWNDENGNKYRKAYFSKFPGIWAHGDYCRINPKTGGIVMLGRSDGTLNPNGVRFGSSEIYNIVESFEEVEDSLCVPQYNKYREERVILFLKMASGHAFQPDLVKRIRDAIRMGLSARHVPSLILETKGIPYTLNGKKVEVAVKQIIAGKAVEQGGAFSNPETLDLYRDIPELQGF
# Procedure: as §1, §2
# FLJ12514-derived protein = FLJ12514-derived protein (Homo sapiens, UniProt Q9H9A5); experiment: Biacore S51 surface plasmon resonance interaction analysis with FLJ12514-derived protein; type: binding; settings: for interaction with the protein (dose-dependent binding amount, saturation at high doses): FLJ12514-derived protein, Biacore S51
# FLJ12514-derived protein, sequence (Q9H9A5 whole entry): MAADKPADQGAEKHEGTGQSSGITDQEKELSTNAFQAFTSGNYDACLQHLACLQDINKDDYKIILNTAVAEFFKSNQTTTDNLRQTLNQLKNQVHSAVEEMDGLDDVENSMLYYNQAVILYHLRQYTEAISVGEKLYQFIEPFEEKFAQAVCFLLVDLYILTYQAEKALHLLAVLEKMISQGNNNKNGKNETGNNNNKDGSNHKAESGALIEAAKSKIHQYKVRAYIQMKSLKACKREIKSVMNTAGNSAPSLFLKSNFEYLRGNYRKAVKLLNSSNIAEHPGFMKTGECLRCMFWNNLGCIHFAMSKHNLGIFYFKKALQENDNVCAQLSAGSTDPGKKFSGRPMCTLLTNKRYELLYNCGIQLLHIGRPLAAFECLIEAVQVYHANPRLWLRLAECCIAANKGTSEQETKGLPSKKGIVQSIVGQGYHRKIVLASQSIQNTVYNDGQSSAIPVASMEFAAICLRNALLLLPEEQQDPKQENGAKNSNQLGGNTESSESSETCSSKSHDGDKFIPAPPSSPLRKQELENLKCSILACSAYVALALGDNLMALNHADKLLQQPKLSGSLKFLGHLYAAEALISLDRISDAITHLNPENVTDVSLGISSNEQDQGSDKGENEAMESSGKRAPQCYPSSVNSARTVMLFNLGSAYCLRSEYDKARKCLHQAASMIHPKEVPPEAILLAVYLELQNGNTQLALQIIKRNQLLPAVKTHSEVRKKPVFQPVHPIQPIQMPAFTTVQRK
# Procedure: as §1, §2
# FLJ14583-derived protein = molecular target: T3, FLJ14583-derived protein (Homo sapiens, UniProt Q12816); experiment: Biacore S51 surface plasmon resonance interaction analysis with FLJ14583-derived protein; type: binding
# T3 sequence (Q12816 1-1431): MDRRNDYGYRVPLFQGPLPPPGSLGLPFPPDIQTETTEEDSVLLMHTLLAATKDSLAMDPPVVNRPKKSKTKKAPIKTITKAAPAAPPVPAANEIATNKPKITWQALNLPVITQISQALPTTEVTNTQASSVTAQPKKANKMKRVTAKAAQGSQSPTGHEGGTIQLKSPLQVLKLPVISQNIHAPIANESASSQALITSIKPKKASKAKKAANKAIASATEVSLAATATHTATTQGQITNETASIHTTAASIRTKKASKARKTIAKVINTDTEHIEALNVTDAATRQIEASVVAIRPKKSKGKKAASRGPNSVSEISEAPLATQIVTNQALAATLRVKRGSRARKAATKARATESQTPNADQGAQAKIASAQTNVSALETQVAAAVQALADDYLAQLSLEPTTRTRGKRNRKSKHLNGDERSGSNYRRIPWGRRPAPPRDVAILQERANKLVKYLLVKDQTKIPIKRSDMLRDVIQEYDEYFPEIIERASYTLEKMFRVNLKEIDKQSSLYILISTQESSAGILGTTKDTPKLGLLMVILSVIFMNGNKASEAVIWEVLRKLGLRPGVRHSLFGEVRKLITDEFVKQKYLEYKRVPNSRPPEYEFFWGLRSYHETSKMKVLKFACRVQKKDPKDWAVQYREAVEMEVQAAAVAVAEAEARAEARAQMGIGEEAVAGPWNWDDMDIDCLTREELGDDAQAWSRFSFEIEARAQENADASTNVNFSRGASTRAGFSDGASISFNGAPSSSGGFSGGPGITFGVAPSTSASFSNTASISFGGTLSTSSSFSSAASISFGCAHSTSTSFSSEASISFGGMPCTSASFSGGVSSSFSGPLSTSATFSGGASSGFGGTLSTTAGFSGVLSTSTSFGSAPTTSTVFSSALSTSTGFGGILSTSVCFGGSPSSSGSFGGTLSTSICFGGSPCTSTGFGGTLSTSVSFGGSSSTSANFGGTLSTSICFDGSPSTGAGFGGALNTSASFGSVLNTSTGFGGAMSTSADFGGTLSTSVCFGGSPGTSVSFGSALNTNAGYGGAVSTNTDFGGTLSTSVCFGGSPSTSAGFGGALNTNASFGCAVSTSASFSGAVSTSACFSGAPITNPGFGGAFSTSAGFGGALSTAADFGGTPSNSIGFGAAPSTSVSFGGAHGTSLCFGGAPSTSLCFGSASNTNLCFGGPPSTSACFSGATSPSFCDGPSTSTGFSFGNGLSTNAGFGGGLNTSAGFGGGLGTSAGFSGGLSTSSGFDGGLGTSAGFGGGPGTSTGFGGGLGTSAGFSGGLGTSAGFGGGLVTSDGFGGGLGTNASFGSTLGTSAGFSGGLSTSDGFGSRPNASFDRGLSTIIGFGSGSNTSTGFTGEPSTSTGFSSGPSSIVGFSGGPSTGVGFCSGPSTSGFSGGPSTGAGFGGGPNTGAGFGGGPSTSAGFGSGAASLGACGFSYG
# Procedure: as §1, §2
# FLJ31146-derived protein = molecular target: T4, FLJ31146-derived protein (Homo sapiens, UniProt Q9BSE4); experiment: Biacore S51 surface plasmon resonance interaction analysis with FLJ31146-derived protein; type: binding
# T4 construct: fused on or other part: N-terminal histidine tag and FLAG tag, with Gateway linker residues
# T4 sequence (Q9BSE4 1-406): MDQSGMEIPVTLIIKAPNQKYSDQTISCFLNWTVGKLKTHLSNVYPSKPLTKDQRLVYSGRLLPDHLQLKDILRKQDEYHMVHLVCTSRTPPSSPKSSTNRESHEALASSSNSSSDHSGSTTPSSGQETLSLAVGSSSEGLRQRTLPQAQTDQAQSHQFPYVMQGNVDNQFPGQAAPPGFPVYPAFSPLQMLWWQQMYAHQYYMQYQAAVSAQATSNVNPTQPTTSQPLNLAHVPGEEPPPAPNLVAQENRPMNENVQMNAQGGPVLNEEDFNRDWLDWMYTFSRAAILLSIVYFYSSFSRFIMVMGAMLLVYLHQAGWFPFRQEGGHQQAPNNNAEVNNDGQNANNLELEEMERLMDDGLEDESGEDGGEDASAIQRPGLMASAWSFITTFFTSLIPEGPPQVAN
# Procedure: as §1, §2
# FLJ12502-derived protein = molecular target: T5, FLJ12502-derived protein (Homo sapiens, UniProt Q7Z3D6); experiment: Biacore S51 surface plasmon resonance interaction analysis with FLJ12502-derived protein
# T5 sequence (Q7Z3D6 1-616 isoform Q7Z3D6-1): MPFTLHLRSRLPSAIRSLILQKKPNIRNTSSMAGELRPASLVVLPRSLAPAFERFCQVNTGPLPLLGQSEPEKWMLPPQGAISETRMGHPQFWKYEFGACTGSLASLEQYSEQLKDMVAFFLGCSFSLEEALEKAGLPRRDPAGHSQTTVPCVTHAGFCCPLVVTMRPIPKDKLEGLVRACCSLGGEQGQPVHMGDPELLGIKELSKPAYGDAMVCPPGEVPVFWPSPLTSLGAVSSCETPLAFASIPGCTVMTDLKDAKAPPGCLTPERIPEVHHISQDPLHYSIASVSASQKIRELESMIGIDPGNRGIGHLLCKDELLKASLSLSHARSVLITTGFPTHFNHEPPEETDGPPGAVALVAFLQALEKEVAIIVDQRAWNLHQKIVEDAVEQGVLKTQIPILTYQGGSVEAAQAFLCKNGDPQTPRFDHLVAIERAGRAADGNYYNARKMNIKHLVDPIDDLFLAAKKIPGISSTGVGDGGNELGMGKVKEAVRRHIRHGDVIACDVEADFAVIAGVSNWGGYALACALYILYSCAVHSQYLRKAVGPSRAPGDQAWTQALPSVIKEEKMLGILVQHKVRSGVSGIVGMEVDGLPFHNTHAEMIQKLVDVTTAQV
compound,measurement,setting,value
c1ccc2[nH]c(-c3cscn3)nc2c1 [thiabendazole],"interaction with the protein (dose-dependent binding amount, saturation at high doses)",FLJ10368-derived protein,specifically interact
same,"interaction with the protein (dose-dependent binding amount, saturation at high doses)",FLJ12389-derived protein,specifically interact
same,"interaction with the protein (dose-dependent binding amount, saturation at high doses)",FLJ12514-derived protein,specifically interact
CC1=C(C(=O)O)N2C(=O)[C@@H](NC(=O)[C@H](N)c3ccccc3)[C@H]2SC1 [cephalexin],"interaction with the protein (dose-dependent binding amount, saturation at high doses)",FLJ14583-derived protein,specifically interact
same,"interaction with the protein (dose-dependent binding amount, saturation at high doses)",FLJ31146-derived protein,specifically interact
same,Kd,FLJ12502-derived protein,5.98 µM
same,"interaction with the protein (dose-dependent binding amount, saturation at high doses)","FLJ12502-derived protein; FLJ12502-derived protein, Biacore S51",specifically interact
CC[C@@]1(O)C[C@H](O[C@H]2C[C@H](N(C)C)[C@H](O[C@H]3C[C@H](O)[C@H](O[C@H]4CCC(=O)[C@H](C)O4)[C@H](C)O3)[C@H](C)O2)c2c(cc3c(c2O)C(=O)c2c(O)cccc2C3=O)[C@H]1C(=O)OC [aclarubicin],Kd,FLJ12514-derived protein,6.11 µM
same,"interaction with the protein (dose-dependent binding amount, saturation at high doses)",FLJ12514-derived protein,specifically interact
COC(=O)[C@H]1[C@H]2C[C@@H]3c4[nH]c5cc(OC)ccc5c4CCN3C[C@H]2C[C@@H](OC(=O)c2cc(OC)c(OC)c(OC)c2)[C@@H]1OC [reserpine],"interaction with the protein (dose-dependent binding amount, saturation at high doses)",FLJ10368-derived protein,specifically interact
